A short description of data set [1]: Particle size of micronized magnesium isoglycyrrhizinate. The class given is physicochemical. Conditions: micronized active ingredient. The source says: The magnesium isoglycyrrhizinate was micronized to obtain samples having the following different particle size ranges.
A short description of data set [2]: Pharmacokinetic evaluation after inhalation/intragastric administration to rats. The class given is in vivo, SD rats. Conditions: for Cmax/Dose: in (µg/L)/(mg/kg); for AUC(0-t)/Dose: in (µg·h/L)/(mg/kg); for MRT last: read-out: MRT(0-t); for half-life: read-out: t½ z (converted). As for the experimental part:
Eight healthy male SD rats, weighing 223-252 g, were fed with standard formula granule feed of rats on time every day. The rats were fasted for 16 h before the experiment, and were refeeded at 4 h after the administration. Drinking water was free before, after and during the experiment. The rats were randomly divided into two groups, 4 rats in each group, and each rat was inhalation administrated with a single dose of magnesium isoglycyrrhizinate liquid preparation for use in nebulizers (2.5 mg/mL) and intragastric administrated with magnesium isoglycyrrhizinate inhaled preparation (5.0 mg/mL, the amount of isoglycyrrhizic acid is 4.486 mg/mL) respectively. Each rat in the inhalation administration group was given 200 μL of magnesium isoglycyrrhizinate liquid preparation for use in nebulizers (the actual dose given to the rat was 2.24-2.49 mg/kg). The dose in the intragastric administration group was 10.0 mg/kg. 0.2-0.3 mL of blood was taken from the fundus venous plexus before administration (0 h) and 0.0833 h, 0.25 h, 0.5 h, 1 h, 2 h, 4 h, 6 h, 8 h, 10 h, 24 h after administration. EDTA-K2 was used for anticoagulation, and the plasma was centrifuged. Then 50 μL was accurately measured, added with 10 μL internal standard solution to vortex and mixed, then added with 200 μL methanol, and mixed in high speed vortex mixer for 3 min, centrifuged for 10 min (4° C., 13000 rpm). The supernatant was collected, and 100 μL thereof was transferred to a 96-well plate. 50 μL of ultrapure water was added, vortexed, LC-MS/MS was used for detection, and the chromatogram was recorded.

The nature of data set [3]: Body weight of COPD rats (cigarette smoke inhalation model). The class given is in vivo, SD rats. Conditions: in g (unit assumed). As for the experimental part: (§1) After modeling chronic obstructive pulmonary disease model induced by cigarette smoke inhalation, male SD rats were randomly divided into 6 groups according to the body weight: high dose tracheal instillation group (1.67 mg/ml of magnesium isoglycyrrhizinate, 100 μl/rat), low dose tracheal instillation group (1.67 mg/ml, 25 μl/rat), aerosolizing inhalation group, model group and blank control group, 10 rats in each group. During the intervention period, except that the control group and the model group were given normal saline, the other groups were successive administered every day, lasted for 15 days. During the administration period, the administration groups continued to be given with smoke stimulation after 30 minutes of administration, and the mental state, breathing, activity, hair luster, weight gain of the rats were recorded every day. 12 hour after the last administration, whole blood was taken from the rat eye for determination of white blood cell count and cell classified comparison. […] The right lung was ligated at the right main branch, and the left lung was lavaged with normal saline 2 ml×3 times. The recovery rate was about 80%. The bronchoalveolar lavage fluid (BALF) was prepared for the determination of white blood cell count and classified comparison (white blood cells, neutrophils, lymphocytes and monocytes). Finally, the right lung of rat was fixed with 10% formalin and HE stained, lung injury was observed under microscope, and pathological lesions were scored. All scores were accumulated, and the average score of each animal in each group was calculated (mean±SD).
(§2) The experimental result data was expressed in the form of mean±SD. One-way ANOVA combined with Post-Hoc (LSD method) was used to analyze the differences between groups. Statistical significance was expressed as a P value of less than 0.05. The model group was compared with the blank control group, #p<0.05, #p<0.01; each administration group of magnesium isoglycyrrhizinate was compared with the model group, *p<0.05, **p<0.01.

Data set [4] concerns COPD rats. The data set can be described thus: General symptoms of COPD rats (cigarette smoke inhalation model). The class given is in vivo, SD rats. The settings on record: high dose and low dose tracheal infusion and nebulization, versus model group. As for the experimental part:
as §1, with “The recovery rate was about 80%. The bronchoalveolar lavage fluid (BALF) was prepared for the determination of white blood cell count and classified comparison (white blood cells, neutrophils, lymphocytes and monocytes).” left out

Data set [5] relates to COPD rats. The data set can be described thus: White blood cell count and cell classified comparison in blood of COPD rats. The class given is in vivo, SD rats. As for the experimental part: as §1, §2
Data set [6] concerns COPD rats. The data set can be described thus: White blood cell count and cell classified comparison in BALF of COPD rats. The class given is in vivo, SD rats. As for the experimental part:
as §1, §2

In data set [7] the test system is COPD rats. The data set can be described thus: Pathological score of lung of COPD rats (HE staining). The class given is in vivo, SD rats. Also on record: key to Pathological score, Comprehensive score / Pathological score, Emphysema / Pathological score, Inflammatory cell infiltration / Pathological score, Bronchial mucus secretion: lesion score 0 = none, 0.5 slight … 4 = very severe; group mean±SD. As for the experimental part: as §1
Scoring indicators: (1) whether there was mucus and cell blockage in the small airway cavity; (2) whether the small airway epithelium had necrotic erosion; (3) small airway epithelial cells goblet cell metaplasia; (4) small airway epithelial cell squamous metaplasia; (5) small airway wall inflammation cell infiltration; (6) small airway wall fibrous connective tissue hyperplasia; (7) small airway wall smooth muscle hyperplasia; (8) small airway wall pigmentation; and (9) lung emphysema. Lesion score: according to the degree from light to heavy lesions, it was quantified as slight or very small amount for “0.5 point”, mild or small amount for “1 point”, moderate or more quantity amount for “2 points”, severe or plenty amount for “3 points”, very severe or large amount for “4 points”, and no obvious lesions for 0 point.
as §2

The conditions of data set [8]: intravenous, 30.0 mg/kg, cited from earlier work.
The mark [9] stands for this setting: male, SD, rat, plasma, inhaled or intranasal, inhalation, 2.4 mg/kg.
[10] abbreviates: male, SD, rat, plasma, po, intragastric, 10 mg/kg.
Setting [11] is: aerosolizing inhalation, 0.4 mg/ml, 30 min.
[12] abbreviates: high dose tracheal instillation, 1.67 mg/ml, 100 μl.
Where [13] appears, read: low dose tracheal instillation, 1.67 mg/ml, 25 μl.

These results are taken from patent publication US11534398B2, “Inhaled preparation of isoglycyrrhizic acid or salt thereof, and use in preparing drugs for treating respiratory system diseases” (priority 2016, dated 2022).

Structures are written as SMILES. Where “and” joins values, the source holds several entries; their conditions need not be identical. Equal values may be shown once. Read-outs that look alike come from different tables or passages of the source. Marks after values point to notes of the source that are not given here.

For the compound `CC1(C)[C@@H](O[C@H]2O[C@H](C(=O)[O-])[C@@H](O)[C@H](O)[C@H]2O[C@@H]2O[C@H](C(=O)[O-])[C@@H](O)[C@H](O)[C@H]2O)CC[C@]2(C)[C@H]3C(=O)C=C4[C@H]5C[C@@](C)(C(=O)O)CC[C@]5(C)CC[C@@]4(C)[C@]3(C)CC[C@@H]12.[Mg+2]` [Large particle size, magnesium isoglycyrrhizinate], in data set [1], the X10 was 1.47 μm and the X50 came to 5.75 μm.

As for `CC1(C)[C@@H](O[C@H]2O[C@H](C(=O)[O-])[C@@H](O)[C@H](O)[C@H]2O[C@@H]2O[C@H](C(=O)[O-])[C@@H](O)[C@H](O)[C@H]2O)CC[C@]2(C)[C@H]3C(=O)C=C4[C@H]5C[C@@](C)(C(=O)O)CC[C@]5(C)CC[C@@]4(C)[C@]3(C)CC[C@@H]12.[Mg+2]` [Medium particle size, magnesium isoglycyrrhizinate], in data set [1], the X10 came to 1.38 μm and the X50 is reported as 5.08 μm.

On to `CC1(C)[C@@H](O[C@H]2O[C@H](C(=O)[O-])[C@@H](O)[C@H](O)[C@H]2O[C@@H]2O[C@H](C(=O)[O-])[C@@H](O)[C@H](O)[C@H]2O)CC[C@]2(C)[C@H]3C(=O)C=C4[C@H]5C[C@@](C)(C(=O)O)CC[C@]5(C)CC[C@@]4(C)[C@]3(C)CC[C@@H]12.[Mg+2]` [Small particle size, magnesium isoglycyrrhizinate], for which, in data set [1], the X10 is recorded as 0.58 μm and the X50 is listed as 2.03 μm.

For orientation: Cmax means the maximum level reached in the sampled fluid or tissue. As a reminder, the AUC(0-inf) is total exposure, with the tail of the curve extrapolated. What is called AUC(0-t) is exposure summed from dosing to a finite time, without extrapolation to infinity. One may read the Tmax as the time from dosing to the highest level. Turning to `CC1(C)[C@@H](O[C@H]2O[C@H](C(=O)[O-])[C@@H](O)[C@H](O)[C@H]2O[C@@H]2O[C@H](C(=O)[O-])[C@@H](O)[C@H](O)[C@H]2O)CC[C@]2(C)[C@H]3C(=O)C=C4[C@H]5C[C@@](C)(C(=O)O)CC[C@]5(C)CC[C@@]4(C)[C@]3(C)CC[C@@H]12.[Mg+2]` [magnesium isoglycyrrhizinate, magnesium (18α,20β)-20-carboxy-11-oxo-30-norolean-12-ene-3β-yl-2-O-β-D-pyranoglucuronyl-α-D-pyranoglucuronate], in data set [2] (inhalation, 2.4 mg/kg), the CLz/F is 3.25 mL/min/kg and 3.25 ± 1.72 mL/min/kg; the t½ z stood at 2.13 ± 0.69 h; the Cmax/Dose is 1315 and 1315 ± 306; the “AUC(0-t)/Dose” value was 6108 and 6108 ± 2577. Further, in data set [2] (intragastric, 10 mg/kg), the CLz/F was found to be 2700 mL/min/kg, the Cmax/Dose stood at 2.73 and the “AUC(0-t)/Dose” value is 8.98. For the same compound, the Cmax in data set [2] (male, SD, rat, inhaled or intranasal, inhalation, liquid preparation for nebulizers 2.5 mg/mL, 200 μL, 2.4 mg/kg, plasma) was 3110 ng/mL. For the same compound, in data set [2] (setting [9]), the AUC(0-inf) was found to be 14600 ng·h/mL, the AUC(0-t) worked out at 14600 ng·h/mL, the Tmax was determined as 0.81 h and the MRT last worked out at 3.52 h. In addition, the half-life in data set [2] (setting [9]) was 2.13 h. In data set [2] (male, SD, rat, plasma, inhaled, inhalation compared with intravenous administration (literature), read-out: Relative F %), the bioavailability stood at 87%. Besides, in data set [2] (setting [10]), the AUC(0-inf) worked out at 102 ng·h/mL, the AUC(0-t) is 89.8 ng·h/mL, the Tmax is 1.75 h and the MRT last stood at 2.35 h. Further, the half-life in data set [2] (setting [10]) was 1.88 h. The compound further returned a Cmax in data set [2] (male, SD, rat, po, intragastric, 5.0 mg/mL, 10 mg/kg, plasma) of 27.3 ng/mL. Besides, in data set [3] (setting [11]), the “Body weight, End weight” value is 360.11 ± 18.84** and the “Body weight, Initial weight” value is 319.22 ± 10.43**. Also, in data set [3] (setting [12]), the “Body weight, End weight” value is given as 358.20 ± 16.17** and the “Body weight, Initial weight” value is given as 324.6 ± 12.22**. Moreover, in data set [3] (setting [13]), the “Body weight, End weight” value was 350.80 ± 27.79** and the “Body weight, Initial weight” value is on record as 317.60 ± 24.23**. The “General symptoms of COPD rats” value in data set [4] is reported as “relieved compared with the model group”. Further, in data set [5] (setting [11]), the Neutrophil count is 123.67 ± 23.24** 10/μl, the Percentage of neutrophils is 11.05 ± 1.61** % and the “White blood cell count” value is listed as 1123.33 ± 170.54 10/μl. Besides, in data set [5] (setting [12]), the Neutrophil count is 153.25 ± 40.12* 10/μl, the Percentage of neutrophils is 11.31 ± 3.55* % and the “White blood cell count” value is on record as 1395.13 ± 270.32 10/μl. In addition, in data set [5] (setting [13]), the Neutrophil count was 155.13 ± 26.25* 10/μl, the Percentage of neutrophils is 13.80 ± 2.24* % and the “White blood cell count” value is on record as 1135.13 ± 155.73 10/μl. Also, in data set [6] (setting [11]), the Neutrophil count was 57.83 ± 20.78 10/μl, the Percentage of neutrophils was found to be 38.83 ± 21.02% and the “White blood cell count” value is recorded as 170.33 ± 55.17 10/μl. In data set [6] (setting [12]), the Neutrophil count is listed as 89.88 ± 21.57* 10/μl, the Percentage of neutrophils was 48.89 ± 9.69% and the “White blood cell count” value is reported as 184.38 ± 32.15 10/μl. Also, in data set [6] (setting [13]), the Neutrophil count is given as 66.38 ± 25.46 10/μl, the Percentage of neutrophils was 38.08 ± 12.86% and the “White blood cell count” value is listed as 172.50 ± 26.52 10/μl. Moreover, in data set [7] (setting [11]), the “Pathological score, Bronchial mucus secretion” value amounted to 0.278 ± 0.363; the “Pathological score, Comprehensive score” value is 0.89 ± 0.65*; the “Pathological score, Emphysema” value turned out to be 0.222 ± 0.441; the “Pathological score, Inflammatory cell infiltration” value was 0.389 ± 0.333**. Also, in data set [7] (setting [12]), the “Pathological score, Bronchial mucus secretion” value is recorded as 0.050 ± 0.158**; the “Pathological score, Comprehensive score” value is 0.90 ± 0.52*; the “Pathological score, Emphysema” value amounted to 0.300 ± 0.422; the “Pathological score, Inflammatory cell infiltration” value was 0.450 ± 0.550*. In addition, the “Lung pathology of COPD rats (in words)” value in data set [7] (high dose, low dose tracheal infusion and aerosolizing inhalation groups) was “significantly reduce lung inflammation, improve bronchial wall function, reduce bronchial mucus secretion and improve emphysema”. Moreover, in data set [7] (setting [13]), the “Pathological score, Bronchial mucus secretion” value amounted to 0.200 ± 0.350; the “Pathological score, Comprehensive score” value is recorded as 0.80 ± 0.50*; the “Pathological score, Emphysema” value was found to be 0.150 ± 0.337; the “Pathological score, Inflammatory cell infiltration” value is 0.400 ± 0.394**. In addition, the Cmax in data set [8] (N = 6, literature) was 354500 ng/mL. Also, in data set [8] (literature), the “AUC(0-t)” value was 209591 ng·h/mL, the “AUC(0-t)/Dose” value is on record as 6986, the “AUC(0-∞)” value was 212295 ng·h/mL and the CLz/F is 2355 mL/min/kg. For the same compound, in data set [8] (literature), the Cmax/Dose was 11817, the “MRT(0-t)” value is 1.71 h, the Tmax was 5 min and the t1/2 z is recorded as 2.06 h.
